Data from US20240423977A1, “FIVE-MEMBERED RING-FUSED SIX-MEMBERED RING COMPOUND, PREPARATION METHOD THEREFOR, AND PHARMACEUTICAL COMPOSITION AND USE THEREOF” (HANGZHOU POLYMED BIOPHARMACEUTICALS, INC., priority 2022, published 2024).

molecular target: kinase IRAK4 (Homo sapiens (Human), UniProt Q9NWZ3); assay: Inhibitory effects of compounds on kinase activity (fluorescence microfluidic mobility detection, competitive with ATP); format: biochemical; conditions: Table 1; class symbols; IRAK4 6 nM, ATP 10 μM
Procedure: Based on an experimental method of fluorescence microfluidic mobility detection, an IC50 value of competitive binding of kinase IRAK4 to ATP by the compounds was determined. The initial detection concentration of the compounds was 10 μM, diluted 4-fold gradient down to […], and tested in duplicate. Among them, commercial staurosporine was the standard control substance in this experiment.
1) IRAK4 kinase was dissolved in kinase buffer (50 mM HEPES pH 7.5, 10 mM MgCl2, 2 mM DTT and 0.01% Brij-35) to a final concentration of 6 nM.
2) The substrate peptide FAM-P8 and ATP were dissolved in the above kinase buffer. The final concentrations of the IRAK4 substrate peptide FAM-P8 and ATP were 3 μM and 10 μM respectively.
3) Dilution of the compounds: the compound was first diluted to 50 μM, and then diluted down with a 4-fold gradient of DMSO. The solution without the compound and kinase is used as a blank control, corresponding to the “minimum value” shown below; and the solution without the compound but with kinase, adenosine 5′-triphosphate disodium salt hydrate, DMSO and buffer is used as a positive control, corresponding to the “maximum value” shown below. 4) Kinase reaction and termination: 10 μL of kinase buffer was added to a 384-well plate containing 5 μL of the compound to be tested, and incubated at room temperature for 10 minutes. Another 10 μL of buffer containing the substrate peptide and adenosine 5′-triphosphate disodium salt hydrate was added to the 384-well plate. After incubation at 28° C. for one hour, 25 μL stop solution (100 mM HEPES pH 7.5, 50 mM EDTA, 0.2% Coating Reagent #3 and 0.015% Brij-35) was added to each well to terminate the reaction.
5) Data reading: the CaliperEZ Reader II instrument was used to read the conversion rate data. Conditions: downstream voltage −500V, upstream voltage −2250V, base pressure −0.5 PSI, and screening pressure −1.2 PSI.
6) Data calculation: the conversion rate data was copied from CaliperEZ Reader II and converted into inhibition rate data. The calculation formula is as follows:
[formula] • IC50 values were fitted using XLFit excel add-in version 5.4.0.8,
Y=Bottom+(Top−Bottom)/(1+(IC50/X)^HillSlope) Fitting formula: […]

kinase IRAK4, sequence (Q9NWZ3 whole entry): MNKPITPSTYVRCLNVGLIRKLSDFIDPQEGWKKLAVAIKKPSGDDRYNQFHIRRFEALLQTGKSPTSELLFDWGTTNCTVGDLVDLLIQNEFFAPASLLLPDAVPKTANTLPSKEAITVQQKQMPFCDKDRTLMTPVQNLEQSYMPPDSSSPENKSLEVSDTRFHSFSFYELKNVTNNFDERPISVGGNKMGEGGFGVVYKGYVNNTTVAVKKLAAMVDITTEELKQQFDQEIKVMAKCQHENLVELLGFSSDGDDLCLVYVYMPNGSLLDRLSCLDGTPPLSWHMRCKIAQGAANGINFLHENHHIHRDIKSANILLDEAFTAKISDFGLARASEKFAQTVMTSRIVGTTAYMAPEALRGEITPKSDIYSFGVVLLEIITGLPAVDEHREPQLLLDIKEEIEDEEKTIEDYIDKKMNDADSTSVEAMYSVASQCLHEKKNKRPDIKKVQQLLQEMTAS

| Compound | IC50 |
| --- | --- |
| COc1cc2nn(C3CC4CCC(C3)N4CC(=O)N3CCN(c4ccc5c(c4)C(=O)N(C4CCC(=O)NC4=O)C5=O)CC3)cc2cc1NC(=O)c1cccc(C(F)(F)F)n1 (stereo not drawn) [II-13] | < 100 nM |
| COc1cc2nn(C3CC4(CCN(CC5CCN(c6ccc7c(c6)C(=O)N(C6CCC(=O)NC6=O)C7=O)CC5)CC4)C3)cc2cc1NC(=O)c1cccc(C(F)(F)F)n1 (stereo not drawn) [Compound I-13] | < 100 nM |
| COc1cc2nn(C3CC4(CCN(C(=O)[C@H]5CC[C@H](Nc6ccc7c(c6)C(=O)N(C6CCC(=O)NC6=O)C7=O)CC5)CC4)C3)cc2cc1NC(=O)c1cccc(C(F)(F)F)n1 (stereo partly drawn) [Compound I-4] | < 100 nM |

Continued, values first:

| IC50 | Compound |
| --- | --- |
| < 100 nM | COc1cc2nn(C3CCN(C4CC5(CCN(c6ccc7c(c6)C(=O)N(C6CCC(=O)NC6=O)C7=O)CC5)C4)CC3)cc2cc1NC(=O)c1cccc(C(F)(F)F)n1 (stereo not drawn) [II-12] |
| < 100 nM | COc1cc2nn(C3CCN(C(C)C(=O)N4CCN(c5ccc6c(c5)C(=O)N(C5CCC(=O)NC5=O)C6=O)CC4)CC3)cc2cc1NC(=O)c1cccc(C(F)(F)F)n1 (stereo not drawn) [II-10] |

same assay, conditions: Table 2; IRAK4 6 nM, ATP 10 μM, substrate FAM-P8 3 μM

| Compound | IC50 |
| --- | --- |
| COc1cc2nn(C3CC4(CCN(C(=O)C5CCN(c6ccc7c(c6)C(=O)N(C6CCC(=O)NC6=O)C7=O)CC5(F)F)CC4)C3)cc2cc1NC(=O)c1cccc(C(F)(F)F)n1 (stereo not drawn) [Compound I-35] | 33.4 nM |
| COc1cc2nn(C3CC4(CCC(C(=O)N5CCN(c6ccc7c(c6)C(=O)N(C6CCC(=O)NC6=O)C7=O)CC5)CC4)C3)cc2cc1NC(=O)c1cccc(C(F)(F)F)n1 (stereo not drawn) [Compound I-20] | 23.6 nM |
| CC(O)(c1cc2nn(C3CC4(CCN(C(=O)C5CCN(c6ccc7c(c6)C(=O)N(C6CCC(=O)NC6=O)C7=O)CC5)CC4)C3)cc2cc1NC(=O)c1cccc(C(F)(F)F)n1)C(F)(F)F (stereo not drawn) [Compound I-12F] | 57.6 nM |
| COc1cc2nn(C3CC4(CCN(C(=O)[C@H]5CC[C@H](Nc6ccc7c(c6)C(=O)N([C@H]6CCC(=O)NC6=O)C7=O)CC5)CC4)C3)cc2cc1NC(=O)c1cccc(C(F)(F)F)n1 [Compound I-59] | 27.3 nM |
| COc1cc2nn(C3CC4(CCN(C(=O)C5CCN(c6ccc7c(c6)C(=O)N(C6CCC(=O)NC6=O)C7=O)CC5)CC4)C3)cc2cc1NC(=O)c1cccc(N2CC3CC2CO3)n1 (stereo not drawn) [Compound I-52] | 13.3 nM |
| O=C1CCC(N2C(=O)c3ccc(N4CCC(C(=O)N5CCC6(CC5)CC(n5cc7cc(NC(=O)c8cccc(C(F)(F)F)n8)c(C(=O)O)cc7n5)C6)CC4)cc3C2=O)C(=O)N1 (stereo not drawn) [Compound I-48] | 19.2 nM |
| COc1cc2nn(C3CC4CCC(C3)N4CC(=O)N3CCN(c4ccc5c(c4)C(=O)N(C4CCC(=O)NC4=O)C5=O)CC3)cc2cc1NC(=O)c1cccc(C(F)(F)F)n1 (stereo not drawn) [II-13] | 10.5 nM |
| COc1cc2nn(C3CC4(CCN(CC5CCN(c6ccc7c(c6)C(=O)N(C6CCC(=O)NC6=O)C7=O)CC5)CC4)C3)cc2cc1NC(=O)c1cccc(C(F)(F)F)n1 (stereo not drawn) [Compound I-13] | 4.81 nM |
| COc1cc2nn(C3CC4(CCN(C(=O)[C@H]5CC[C@H](Nc6ccc7c(c6)C(=O)N(C6CCC(=O)NC6=O)C7=O)CC5)CC4)C3)cc2cc1NC(=O)c1cccc(C(F)(F)F)n1 (stereo partly drawn) [Compound I-4] | 36.6 nM |

Now from value to compound:

| IC50 | Compound |
| --- | --- |
| 14.2 nM | COc1cc2nn(C3CCN(C4CC5(CCN(c6ccc7c(c6)C(=O)N(C6CCC(=O)NC6=O)C7=O)CC5)C4)CC3)cc2cc1NC(=O)c1cccc(C(F)(F)F)n1 (stereo not drawn) [II-12] |
| 7.45 nM | COc1cc2nn(C3CCN(C(C)C(=O)N4CCN(c5ccc6c(c5)C(=O)N(C5CCC(=O)NC5=O)C6=O)CC4)CC3)cc2cc1NC(=O)c1cccc(C(F)(F)F)n1 (stereo not drawn) [II-10] |

molecular target: IRAK4 protein in THP-1 cells (Homo sapiens (Human), UniProt Q9NWZ3); assay: PROTAC-induced IRAK4 protein degradation in THP-1 cells (Western Blot); format: cell-based; conditions: concentration that degraded 50% of IRAK4, Western blotting, 24 hours after administration
Procedure: 2.1 Based on the experimental method of Western Blot, specific antibodies were used to stain the THP-1 cell samples treated by gel electrophoresis, and the degrading activity of the compounds on the IRAK4 protein in THP-1 cells was determined by analyzing the position and depth of staining. The concentrations of compound for the detection included 0 μM, 0.3 μM, 1 μM and 3 μM, and the cells were treated by the compound for 8 hours, 16 hours, 24 hours, and 48 hours. Glyceraldehyde-3-phosphate dehydrogenase (GAPDH) is an internal reference protein in this experiment.
Electrophoresis buffer: 50 mL MOPS SDS Running Buffer (20×) and 50 mL 20×TBS Tween-20 buffer were diluted with deionized water to 1 L as the electrophoresis buffer;
5% skim milk (w/v): 2.5 g skim milk was diluted with 50 mL 1×TBS Tween-20 buffer to prepare 5% skim milk;
5% BSA (w/v): 2.5 g BSA was diluted with 50 mL 1×TBS Tween-20 buffer to prepare 5% BSA;
Anti-IRAK4 antibody was diluted with 5% BSA at 1:1000 into a primary antibody working solution;
Goat Anti-Rabbit IgG H&L (HRP) was diluted with 5% BSA at 1:2000 into a second antibody working solution; and
Goat Anti-Mouse IgG H&L (HRP) was diluted with 5% BSA at 1:2000 into a second antibody working solution.
THP-1 cells were plated in a 6-well plate at a density of 1.5×10^6 cells per ml and incubated for 2 hours in a cell culture incubator under 37° C. and 5% CO2. The compound was diluted with DMSO to 0.6 mM, 0.2 mM and 0.06 mM respectively. 10 μL of compound solution was added to the corresponding wells, and continued to incubate in the incubator for 16 hours, 24 hours and 48 hours respectively. The compound-treated THP-1 cells in the well were collected, added with 120 μL of RIPA lysate containing protease inhibitor, Phosphatase Inhibitor Cocktail 2 and Phosphatase Inhibitor Cocktail 3, lysed on wet ice for 30 minutes, and then the cells lysate was centrifuged at a high speed and a low temperature for 5 minutes to collect the supernatant. The protein concentration of the cell sample was determined according to the instructions in the Pierce™ BCA Protein Assay Kit.
The concentration of the sample was adjusted to be consistent using lysis buffer and NuPAGE® LDS sample buffer containing 1M DTT. The samples were heated at 95° C. for 5 minutes and centrifuged at a low temperature and at a high speed. 20 μL of the prepared protein sample and 4 μL of PageRuler Prestained Protein Ladder were added into the gel well for running at 80V voltage for 0.5 hours, then the voltage was adjusted to 120V for further running for 1.5 hours. The gel was removed and the proteins in the gel were transferred to the IBlotTM 2 transfer membrane set at 20V. After successful transfer, bands at 65 kDa-40 kDa and 40 kDa-30 kDa were cut respectively. The membranes were blocked with 5% skim milk for 1 hour at room temperature. The membranes were washed three times with 1× concentration of TBST, then incubated with IRAK4 antibody working solution overnight at 4° C. The IRAK4 antibody working solution was discarded, and the membranes were washed three times with 1×concentration of TBST, and incubated with Goat Anti-Rabbit IgG H&L (HRP) working solution and Goat Anti-Mouse IgG H&L (HRP) working solution at room temperature. After 1 hour of incubation, the antibody working solution was discarded and the membranes were washed three times with 1× concentration of TBST. According to the instructions of the kit SuperSignal™ West Femto Maximum Sensitivity Substrate, the reagents in the kit were mixed in equal volume proportions to prepare a luminescent liquid mixture. The membranes were incubated for 1 minute, then removed for exposure.
The results of Western blotting 24 hours after administration of the compounds with a concentration of 1 μM were shown in Table 3: […]

IRAK4 protein in THP-1 cells, sequence (Q9NWZ3 whole entry): as above

| Compound | DC50 |
| --- | --- |
| COc1cc2nn(C3CC4(CCN(C(=O)C5CCN(c6ccc7c(c6)C(=O)N(C6CCC(=O)NC6=O)C7=O)CC5(F)F)CC4)C3)cc2cc1NC(=O)c1cccc(C(F)(F)F)n1 (stereo not drawn) [Compound I-35] | 7.86 nM |
| COc1cc2nn(C3CC4(CCC(C(=O)N5CCN(c6ccc7c(c6)C(=O)N(C6CCC(=O)NC6=O)C7=O)CC5)CC4)C3)cc2cc1NC(=O)c1cccc(C(F)(F)F)n1 (stereo not drawn) [Compound I-20] | 11.2 nM |
| CC(O)(c1cc2nn(C3CC4(CCN(C(=O)C5CCN(c6ccc7c(c6)C(=O)N(C6CCC(=O)NC6=O)C7=O)CC5)CC4)C3)cc2cc1NC(=O)c1cccc(C(F)(F)F)n1)C(F)(F)F (stereo not drawn) [Compound I-12F] | 1.08 nM |
| COc1cc2nn(C3CC4(CCN(C(=O)[C@H]5CC[C@H](Nc6ccc7c(c6)C(=O)N([C@H]6CCC(=O)NC6=O)C7=O)CC5)CC4)C3)cc2cc1NC(=O)c1cccc(C(F)(F)F)n1 [Compound I-59] | 8.05 nM |
| COc1cc2nn(C3CC4(CCN(C(=O)C5CCN(c6ccc7c(c6)C(=O)N(C6CCC(=O)NC6=O)C7=O)CC5)CC4)C3)cc2cc1NC(=O)c1cccc(N2CC3CC2CO3)n1 (stereo not drawn) [Compound I-52] | 3.9 nM |
| O=C1CCC(N2C(=O)c3ccc(N4CCC(C(=O)N5CCC6(CC5)CC(n5cc7cc(NC(=O)c8cccc(C(F)(F)F)n8)c(C(=O)O)cc7n5)C6)CC4)cc3C2=O)C(=O)N1 (stereo not drawn) [Compound I-48] | > 1000 nM |
| COc1cc2nn(C3CC4CCC(C3)N4CC(=O)N3CCN(c4ccc5c(c4)C(=O)N(C4CCC(=O)NC4=O)C5=O)CC3)cc2cc1NC(=O)c1cccc(C(F)(F)F)n1 (stereo not drawn) [II-13] | 478 nM |
| COc1cc2nn(C3CC4(CCN(CC5CCN(c6ccc7c(c6)C(=O)N(C6CCC(=O)NC6=O)C7=O)CC5)CC4)C3)cc2cc1NC(=O)c1cccc(C(F)(F)F)n1 (stereo not drawn) [Compound I-13] | 15.8 nM |
| COc1cc2nn(C3CC4(CCN(C(=O)[C@H]5CC[C@H](Nc6ccc7c(c6)C(=O)N(C6CCC(=O)NC6=O)C7=O)CC5)CC4)C3)cc2cc1NC(=O)c1cccc(C(F)(F)F)n1 (stereo partly drawn) [Compound I-4] | 2.06 nM |

Continued, values first:

| DC50 | Compound |
| --- | --- |
| 20.5 nM | COc1cc2nn(C3CCN(C4CC5(CCN(c6ccc7c(c6)C(=O)N(C6CCC(=O)NC6=O)C7=O)CC5)C4)CC3)cc2cc1NC(=O)c1cccc(C(F)(F)F)n1 (stereo not drawn) [II-12] |
| 5.98 nM | COc1cc2nn(C3CCN(C(C)C(=O)N4CCN(c5ccc6c(c5)C(=O)N(C5CCC(=O)NC5=O)C6=O)CC4)CC3)cc2cc1NC(=O)c1cccc(C(F)(F)F)n1 (stereo not drawn) [II-10] |
